Experimental data taken from patent US8426408B2, “Pyrimidine inhibitors of kinases” (AbbVie Inc., priority 2009, dated 2013).

Columns and labels:
[1] = target: T1, Aurora A (Homo sapiens, UniProt O14965); experiment: Aurora A enzyme inhibition (time-resolved fluorescence, STK substrate-2); type: biochemical; conditions: 1 mM ATP
T1 sequence (O14965 1-403): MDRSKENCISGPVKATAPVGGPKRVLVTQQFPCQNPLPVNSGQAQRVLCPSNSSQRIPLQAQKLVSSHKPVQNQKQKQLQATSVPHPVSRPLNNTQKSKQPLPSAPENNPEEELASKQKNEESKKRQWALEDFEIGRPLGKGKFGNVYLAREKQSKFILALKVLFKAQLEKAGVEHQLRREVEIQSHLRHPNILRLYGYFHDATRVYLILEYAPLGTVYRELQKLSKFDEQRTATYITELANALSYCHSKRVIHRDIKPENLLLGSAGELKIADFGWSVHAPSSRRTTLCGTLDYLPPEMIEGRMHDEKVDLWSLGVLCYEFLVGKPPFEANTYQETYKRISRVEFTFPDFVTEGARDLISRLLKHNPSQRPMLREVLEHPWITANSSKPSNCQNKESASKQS
Procedure, shortened: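 Active enzyme incubated 1 h with biotinylated STK substrate-2, 1 mM ATP and inhibitor in Hepes pH 7.4 with MgCl2, orthovanadate and Triton X-100. EDTA stop; phosphopeptide detected by Eu-cryptate anti-phospho-STK/SA-XL665 TR-FRET (665/615 nm ratio); IC50 by exponential fit.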

[2] = target: KDR (Homo sapiens, UniProt P35968); experiment: KDR HTRF in vitro kinase assay; type: biochemical; set-up: purified enzyme (His6-KDR 789-1354, MW 63 kD); His6 (N); conditions: 1 mM ATP; read-out: KDR enzyme inhibition data (Ki)
Chain of KDR (P35968 789-1354): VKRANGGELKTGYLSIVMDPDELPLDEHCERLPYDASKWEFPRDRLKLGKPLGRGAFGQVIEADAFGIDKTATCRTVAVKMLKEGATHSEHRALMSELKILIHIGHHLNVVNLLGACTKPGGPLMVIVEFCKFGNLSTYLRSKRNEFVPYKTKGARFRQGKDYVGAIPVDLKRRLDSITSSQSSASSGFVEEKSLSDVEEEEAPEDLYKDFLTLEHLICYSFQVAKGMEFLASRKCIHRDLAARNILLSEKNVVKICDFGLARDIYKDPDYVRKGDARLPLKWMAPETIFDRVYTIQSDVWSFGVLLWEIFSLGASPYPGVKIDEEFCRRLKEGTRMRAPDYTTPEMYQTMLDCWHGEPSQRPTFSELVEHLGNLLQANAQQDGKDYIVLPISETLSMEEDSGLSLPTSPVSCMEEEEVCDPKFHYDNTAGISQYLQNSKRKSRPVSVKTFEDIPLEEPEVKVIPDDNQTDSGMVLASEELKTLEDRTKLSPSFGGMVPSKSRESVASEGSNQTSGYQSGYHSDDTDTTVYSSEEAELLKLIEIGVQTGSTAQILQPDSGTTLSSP
Procedure, shortened: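 His6-KDR 789-1354 (7 ng/well) with 0.5 μM biotinylated peptide substrate and 1 mM ATP in HEPES pH 7.1, MgCl2/MnCl2, 60 min at room temperature. EDTA-quenched, detected by streptavidin-XL-665 plus Eu-kryptate anti-phosphotyrosine HTRF after 3 h; IC50 from 620/665 nm ratio.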

[3] = test system: NCI-H1299 cells; experiment: Induction of polyploidy in H1299; type: cell-based, Human; conditions: Homo sapiens; NCI-H1299, 48 hours; read-out: EC15 (concentration of inhibitor necessary to induce polyploidy in 15% of cells)
Procedure, shortened: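 NCI-H1299 cells in RPMI 1640/10% FCS were treated with inhibitor concentrations in duplicate for 48 h at 37 C, then formalin-fixed and Hoechst-stained. Nuclear area was measured by high-content imaging, with polyploid (≥4N) defined as >750 μ^2. EC15 was derived by least-squares fit of log dose-response.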

[4] = target: T2, Aurora B (Homo sapiens, UniProt Q96GD4); experiment: Aurora B enzyme inhibition (time-resolved fluorescence, histone H3 peptide); type: biochemical; conditions: 1 mM ATP
T2 construct: Active Aurora B enzyme (recombinant residues 1-344)
T2 sequence (Q96GD4 whole entry, the tested form may be a part): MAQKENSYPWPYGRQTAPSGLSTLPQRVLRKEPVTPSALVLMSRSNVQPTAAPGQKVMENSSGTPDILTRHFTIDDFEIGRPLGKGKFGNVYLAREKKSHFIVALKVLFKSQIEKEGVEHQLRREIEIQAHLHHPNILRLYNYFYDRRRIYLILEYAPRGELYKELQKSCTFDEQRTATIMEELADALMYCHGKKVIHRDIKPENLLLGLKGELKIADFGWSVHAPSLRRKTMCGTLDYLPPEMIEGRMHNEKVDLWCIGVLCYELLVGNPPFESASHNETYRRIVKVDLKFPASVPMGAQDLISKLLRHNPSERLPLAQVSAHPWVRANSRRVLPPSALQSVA
T2 sequence (Q9NQS7 826-918 partner limits assumed): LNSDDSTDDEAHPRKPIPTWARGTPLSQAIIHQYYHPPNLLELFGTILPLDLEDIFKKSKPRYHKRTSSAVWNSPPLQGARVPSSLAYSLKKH
Procedure, shortened: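 Recombinant Aurora B (residues 1-344) with GST-INCENP phosphorylated biotinylated histone H3 (1-21) peptide at 1 mM ATP in HEPES pH 7.4 with MgCl2, orthovanadate and Triton X-100 for 1 h. After EDTA stop, the phosphopeptide was detected by TR-FRET (Eu-cryptate anti-phospho-H3 / SA-APC, 665/615 nm ratio). IC50 from an exponential fit.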

Ki [1] [nM] | Ki [2] [nM] | Ki [4] [nM] | Structure (SMILES) | EC15 [3] [nM]
< 100 | < 100 | < 100 | CN1CCN(CCn2cc(Nc3ncc(Br)c(N[C@H]4[C@@H](C(N)=O)[C@@H]5C=C[C@H]4C5)n3)cn2)CC1 [Example 94, (1S,2S,3R,4R)-3-{[5-bromo-2-({1-[2-(4-methylpiperazin-1-yl)ethyl]-1H-pyrazol-4-yl}amino)pyrimidin-4-yl]amino}bicyclo[2.2.1]hept-5-ene-2-carboxamide] | < 100
< 100 | < 100 | < 100 | NC(=O)[C@@H]1[C@H](Nc2nc(Nc3cnn(C4CCNCC4)c3)ncc2Br)[C@H]2C=C[C@@H]1C2 [Example 95, (1S,2S,3R,4R)-3-[(5-bromo-2-{[1-(piperidin-4-yl)-1H-pyrazol-4-yl]amino}pyrimidin-4-yl)amino]bicyclo[2.2.1]hept-5-ene-2-carboxamide] | 100 to 1000
< 100 | < 100 | < 100 | COCCn1cc(Nc2ncc(Cl)c(N[C@H]3[C@@H](C(N)=O)[C@@H]4C=C[C@H]3C4)n2)cn1 [Example 96, (1S,2S,3R,4R)-3-[(5-chloro-2-{[1-(2-methoxyethyl)-1H-pyrazol-4-yl]amino}pyrimidin-4-yl)amino]bicyclo[2.2.1]hept-5-ene-2-carboxamide] | 100 to 1000
